Assays:
[1] = molecular target: G protein-coupled receptor kinase 5 (Homo sapiens, UniProt P34947)
Description: Inhibition of GRK-5 (unknown origin) preincubated with enzyme for 10 mins before adding peptide substrate and ATP measured after 1 hr by LANCE-TR-FRET assay

[2] = molecular target: T1, Beta-adrenergic receptor kinase 1 (Homo sapiens, UniProt P25098); experiment: Inhibition of GRK-2 (unknown origin) preincubated with enzyme for 10 mins before adding peptide substrate and ATP measured after 1 hr by LANCE-TR-FRET assay
T1 sequence (P25098 whole entry): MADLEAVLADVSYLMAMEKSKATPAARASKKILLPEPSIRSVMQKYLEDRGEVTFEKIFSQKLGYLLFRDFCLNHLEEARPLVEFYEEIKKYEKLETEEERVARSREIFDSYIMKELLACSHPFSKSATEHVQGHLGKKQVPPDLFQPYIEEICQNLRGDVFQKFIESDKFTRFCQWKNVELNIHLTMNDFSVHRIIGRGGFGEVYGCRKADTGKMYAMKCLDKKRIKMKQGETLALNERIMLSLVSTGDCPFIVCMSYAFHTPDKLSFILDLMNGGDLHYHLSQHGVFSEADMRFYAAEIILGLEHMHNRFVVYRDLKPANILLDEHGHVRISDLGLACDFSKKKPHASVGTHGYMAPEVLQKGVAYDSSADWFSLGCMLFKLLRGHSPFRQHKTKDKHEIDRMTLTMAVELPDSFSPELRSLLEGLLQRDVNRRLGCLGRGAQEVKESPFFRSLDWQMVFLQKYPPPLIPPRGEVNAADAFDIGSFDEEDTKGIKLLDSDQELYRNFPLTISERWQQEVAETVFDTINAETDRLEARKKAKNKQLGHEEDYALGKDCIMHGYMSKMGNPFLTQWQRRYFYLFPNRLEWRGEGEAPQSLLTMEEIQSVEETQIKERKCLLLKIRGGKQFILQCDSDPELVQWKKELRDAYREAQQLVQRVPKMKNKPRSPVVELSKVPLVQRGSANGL

[3] = molecular target: ALK tyrosine kinase receptor (Homo sapiens, UniProt Q9UM73); experiment: Inhibition of ALK (unknown origin)
Sequence of ALK tyrosine kinase receptor (Q9UM73 whole entry): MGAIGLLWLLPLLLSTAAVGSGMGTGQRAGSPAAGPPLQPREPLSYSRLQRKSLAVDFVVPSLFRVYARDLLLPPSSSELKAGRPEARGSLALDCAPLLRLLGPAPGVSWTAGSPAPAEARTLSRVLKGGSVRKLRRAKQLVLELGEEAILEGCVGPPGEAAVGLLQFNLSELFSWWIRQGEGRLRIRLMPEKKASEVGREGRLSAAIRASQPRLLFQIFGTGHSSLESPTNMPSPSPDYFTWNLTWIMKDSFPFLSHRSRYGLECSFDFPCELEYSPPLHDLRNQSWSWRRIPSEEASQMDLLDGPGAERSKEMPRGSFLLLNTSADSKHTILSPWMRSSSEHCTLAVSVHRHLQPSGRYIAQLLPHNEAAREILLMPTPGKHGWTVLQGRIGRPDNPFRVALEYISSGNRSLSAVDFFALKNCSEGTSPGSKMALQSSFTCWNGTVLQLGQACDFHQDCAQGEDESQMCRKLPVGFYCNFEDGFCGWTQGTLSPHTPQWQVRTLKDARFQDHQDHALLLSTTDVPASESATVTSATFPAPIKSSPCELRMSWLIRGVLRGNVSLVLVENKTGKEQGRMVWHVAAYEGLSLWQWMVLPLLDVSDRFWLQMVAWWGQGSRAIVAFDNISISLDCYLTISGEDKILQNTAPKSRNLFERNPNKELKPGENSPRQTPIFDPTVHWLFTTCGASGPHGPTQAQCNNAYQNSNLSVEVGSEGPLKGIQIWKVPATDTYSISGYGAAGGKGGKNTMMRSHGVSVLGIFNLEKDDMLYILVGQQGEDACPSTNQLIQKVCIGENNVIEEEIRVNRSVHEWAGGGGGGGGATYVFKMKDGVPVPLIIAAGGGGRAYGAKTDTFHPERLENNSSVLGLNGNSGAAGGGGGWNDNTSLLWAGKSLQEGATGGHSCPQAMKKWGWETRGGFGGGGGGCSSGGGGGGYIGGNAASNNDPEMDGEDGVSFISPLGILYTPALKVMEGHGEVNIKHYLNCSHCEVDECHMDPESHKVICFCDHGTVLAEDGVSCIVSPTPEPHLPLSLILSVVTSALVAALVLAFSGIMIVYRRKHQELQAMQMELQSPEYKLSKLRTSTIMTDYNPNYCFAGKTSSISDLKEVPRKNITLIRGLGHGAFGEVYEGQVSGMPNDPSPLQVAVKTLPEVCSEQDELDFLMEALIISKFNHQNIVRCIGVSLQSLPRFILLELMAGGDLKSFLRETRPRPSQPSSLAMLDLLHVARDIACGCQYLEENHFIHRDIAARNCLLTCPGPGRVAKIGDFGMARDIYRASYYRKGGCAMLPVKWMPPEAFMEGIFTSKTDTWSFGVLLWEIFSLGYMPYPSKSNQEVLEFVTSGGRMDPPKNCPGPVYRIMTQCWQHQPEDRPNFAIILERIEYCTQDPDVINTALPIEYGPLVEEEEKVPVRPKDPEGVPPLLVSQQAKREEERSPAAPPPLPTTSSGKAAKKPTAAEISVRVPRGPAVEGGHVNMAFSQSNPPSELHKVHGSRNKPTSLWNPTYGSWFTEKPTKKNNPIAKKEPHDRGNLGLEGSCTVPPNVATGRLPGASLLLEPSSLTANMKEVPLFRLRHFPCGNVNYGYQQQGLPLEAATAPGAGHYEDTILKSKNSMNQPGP

[4] = molecular target: Hepatocyte growth factor receptor (Homo sapiens, UniProt P08581); experiment: Inhibition of c-Met (unknown origin)
Sequence of Hepatocyte growth factor receptor (P08581 whole entry): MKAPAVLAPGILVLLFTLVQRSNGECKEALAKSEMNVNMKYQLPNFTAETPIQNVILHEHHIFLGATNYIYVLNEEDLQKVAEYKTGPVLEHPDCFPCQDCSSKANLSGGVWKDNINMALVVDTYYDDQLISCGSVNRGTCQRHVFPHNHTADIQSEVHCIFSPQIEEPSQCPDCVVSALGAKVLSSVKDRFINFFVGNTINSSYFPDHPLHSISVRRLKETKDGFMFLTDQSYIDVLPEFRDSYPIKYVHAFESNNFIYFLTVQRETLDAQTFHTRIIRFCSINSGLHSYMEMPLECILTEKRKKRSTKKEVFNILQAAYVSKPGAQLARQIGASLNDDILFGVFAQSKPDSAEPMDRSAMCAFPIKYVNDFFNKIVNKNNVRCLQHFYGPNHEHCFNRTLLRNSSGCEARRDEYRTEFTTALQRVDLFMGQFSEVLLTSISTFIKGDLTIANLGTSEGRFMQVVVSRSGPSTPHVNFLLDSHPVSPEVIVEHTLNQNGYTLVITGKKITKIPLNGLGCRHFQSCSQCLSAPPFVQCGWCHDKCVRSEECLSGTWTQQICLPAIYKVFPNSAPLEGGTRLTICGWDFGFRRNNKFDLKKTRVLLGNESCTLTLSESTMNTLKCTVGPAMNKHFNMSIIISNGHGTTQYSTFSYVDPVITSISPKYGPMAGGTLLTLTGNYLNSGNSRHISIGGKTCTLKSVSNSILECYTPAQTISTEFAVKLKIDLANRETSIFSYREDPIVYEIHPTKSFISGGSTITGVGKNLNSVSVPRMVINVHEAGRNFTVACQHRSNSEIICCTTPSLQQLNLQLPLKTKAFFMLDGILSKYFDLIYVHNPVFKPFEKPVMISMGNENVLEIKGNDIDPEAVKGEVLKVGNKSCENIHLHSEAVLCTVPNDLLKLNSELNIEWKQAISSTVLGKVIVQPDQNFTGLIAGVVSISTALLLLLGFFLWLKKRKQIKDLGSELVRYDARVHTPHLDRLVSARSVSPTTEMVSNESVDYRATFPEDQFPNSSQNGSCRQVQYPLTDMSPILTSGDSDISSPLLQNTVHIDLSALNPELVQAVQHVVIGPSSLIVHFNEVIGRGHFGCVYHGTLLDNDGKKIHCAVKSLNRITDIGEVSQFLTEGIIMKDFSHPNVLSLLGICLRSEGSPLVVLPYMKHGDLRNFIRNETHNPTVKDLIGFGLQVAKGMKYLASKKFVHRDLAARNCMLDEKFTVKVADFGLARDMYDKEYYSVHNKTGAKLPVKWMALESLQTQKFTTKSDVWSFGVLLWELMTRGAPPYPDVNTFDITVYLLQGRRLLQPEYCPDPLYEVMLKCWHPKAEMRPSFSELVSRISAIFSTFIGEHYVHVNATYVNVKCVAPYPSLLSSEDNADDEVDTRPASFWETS

Sequence of G protein-coupled receptor kinase 5 (P34947 whole entry): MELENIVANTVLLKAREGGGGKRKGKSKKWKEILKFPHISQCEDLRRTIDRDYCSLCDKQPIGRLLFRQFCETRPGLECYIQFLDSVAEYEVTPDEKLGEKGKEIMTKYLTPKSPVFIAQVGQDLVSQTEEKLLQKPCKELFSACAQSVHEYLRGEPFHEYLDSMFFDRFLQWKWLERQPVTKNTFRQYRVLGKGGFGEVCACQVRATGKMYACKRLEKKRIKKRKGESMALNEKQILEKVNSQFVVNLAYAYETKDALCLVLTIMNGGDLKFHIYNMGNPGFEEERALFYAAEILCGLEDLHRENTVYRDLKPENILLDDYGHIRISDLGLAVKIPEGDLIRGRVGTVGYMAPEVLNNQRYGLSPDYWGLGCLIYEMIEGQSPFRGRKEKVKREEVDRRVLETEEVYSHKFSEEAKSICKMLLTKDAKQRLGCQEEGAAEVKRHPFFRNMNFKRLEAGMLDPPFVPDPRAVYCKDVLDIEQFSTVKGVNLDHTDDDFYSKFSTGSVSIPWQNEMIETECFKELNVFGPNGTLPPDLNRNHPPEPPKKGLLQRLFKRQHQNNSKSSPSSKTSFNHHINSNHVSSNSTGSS

IC50 [1] | IC50 [2] | IC50 [3] | IC50 [4] | SMILES
1.76 µM | 8.27 µM | – | – | CN(C)c1ccc2oc(-c3cc(-c4cnn(C5CCNCC5)c4)cnc3N)nc2c1
– | 0.85 µM | – | – | Nc1ncc(-c2cnn(C3CCNCC3)c2)cc1-c1nc2cc(N3CCCCC3)ccc2o1
2.83 µM | 3.2 µM | – | – | Nc1ncc(-c2cnn(C3CCNCC3)c2)cc1-c1nc2ccc(NC(=O)c3ccc(C(F)(F)F)cc3)cc2o1
6.4 µM | > 10 µM | – | – | CS(=O)(=O)Oc1ccc2nc(-c3cc(-c4cnn(C5CCNCC5)c4)cnc3N)oc2c1
4.5 µM | > 10 µM | – | – | Nc1ncc(-c2cnn(C3CCNCC3)c2)cc1-c1nc2cc(-c3ccccc3)ccc2o1
3.5 µM | 4.9 µM | – | – | Nc1ncc(-c2cnn(C3CCNCC3)c2)cc1-c1nc2cc(Nc3ccccc3)ccc2o1
– | 4.22 µM | – | – | Nc1ccc2oc(-c3cc(-c4cnn(C5CCNCC5)c4)cnc3N)nc2c1
1.78 µM | 10 µM | – | – | Nc1ncc(-c2cnn(C3CCNCC3)c2)cc1-c1nc2ccc(-c3cn[nH]c3)cc2o1
2.09 µM | 3.97 µM | – | – | COc1ccc(C(=O)Nc2ccc3nc(-c4cc(-c5cnn(C6CCNCC6)c5)cnc4N)oc3c2)cc1
5.1 µM | > 10 µM | – | – | CN(C)COc1cccc(-c2cnc(N)c(-c3nc4cccc(-c5ccccn5)c4o3)c2)c1
3.4 µM | > 10 µM | – | – | CCc1ccc2nc(-c3cc(-c4cnn(C5CCNCC5)c4)cnc3N)oc2c1O
2.21 µM | 9.16 µM | – | – | COc1ccc2nc(-c3cc(-c4cnn(C5CCNCC5)c4)cnc3N)oc2c1-c1ccc2cn[nH]c2c1
3.22 µM | 3.06 µM | – | – | CC(=O)Nc1ccc2oc(-c3cc(-c4cnn(C5CCNCC5)c4)cnc3N)nc2c1
– | 6.5 µM | – | – | Nc1ncc(-c2cnn(C3CCNCC3)c2)cc1-c1nc2ccc(O)c(-c3ccc4cn[nH]c4c3)c2o1
– | 1.72 µM | – | – | Nc1ncc(-c2cnn(C3CCNCC3)c2)cc1-c1nc2ccc(NC(=O)Nc3ccc(F)cc3)cc2o1
0.81 µM | 5.3 µM | – | – | Nc1ncc(-c2cnn(C3CCNCC3)c2)cc1-c1nc2ccc(N3CCOCC3)cc2o1
3.1 µM | > 10 µM | – | – | Nc1ncc(-c2cnn(C3CCNCC3)c2)cc1-c1nc2ccc(Oc3ncccn3)cc2o1
7.9 µM | > 10 µM | – | – | Nc1ncc(-c2cnn(C3CCNCC3)c2)cc1-c1nc2ccc(Oc3ccc(F)cc3)cc2o1
5.05 µM | 13 µM | – | – | CN(c1ccccc1)c1ccc2oc(-c3cc(-c4cnn(C5CCNCC5)c4)cnc3N)nc2c1
1.66 µM | 2.63 µM | – | – | Nc1ncc(-c2cnn(C3CCNCC3)c2)cc1-c1nc2ccc(NC(=O)Nc3ccccc3)cc2o1
4.2 µM | 6.05 µM | – | – | Nc1ncc(-c2cnn(C3CCNCC3)c2)cc1-c1nc2ccc(Nc3ccccn3)cc2o1
1.25 µM | 2.26 µM | – | – | Nc1ncc(-c2cnn(C3CCNCC3)c2)cc1-c1nc2ccc(Nc3cc(F)cc(F)c3)cc2o1
– | 0.46 µM | 0.34 µM | 0.008 µM | Nc1ncc(-c2cnn(C3CCNCC3)c2)cc1-c1nc2ccc(N3CCCC3)cc2o1
4 µM | > 10 µM | – | – | Nc1ncc(-c2cnn(C3CCNCC3)c2)cc1-c1nc2ccc(Oc3ccccc3)cc2o1
– | 6.32 µM | – | – | CNc1ccc2oc(-c3cc(-c4cnn(C5CCNCC5)c4)cnc3N)nc2c1
6.9 µM | > 10 µM | – | – | Nc1ncc(-c2cnn(C3CCNCC3)c2)cc1-c1nc2ccc(OCc3ccccc3)cc2o1

IC50 [1] | IC50 [2] | IC50 [3] | IC50 [4] | SMILES
1.2 µM | 3.8 µM | – | – | Nc1ncc(-c2cnn(C3CCNCC3)c2)cc1-c1nc2ccc(Oc3ccc(-c4ccccc4)nn3)cc2o1
3.6 µM | 8.1 µM | – | – | N#Cc1ccnc(Oc2ccc3nc(-c4cc(-c5cnn(C6CCNCC6)c5)cnc4N)oc3c2)c1
5.7 µM | 17 µM | – | – | Nc1ncc(-c2cnn(C3CCNCC3)c2)cc1-c1nc2ccc(Oc3cc(Cl)ccn3)cc2o1
– | > 10 µM | – | – | Nc1ncc(-c2cccc(C(=O)NCCN3CCOCC3)c2)cc1-c1nc2cccc(-c3ccccn3)c2o1
– | 5.52 µM | – | – | CCCCNc1ccc2oc(-c3cc(-c4cnn(C5CCNCC5)c4)cnc3N)nc2c1
1.31 µM | 11.9 µM | – | – | Nc1ncc(-c2cnn(C3CCNCC3)c2)cc1-c1nc2ccc(OCc3ccc(F)cc3)cc2o1
1.05 µM | 6.43 µM | – | – | Nc1ncc(-c2cnn(C3CCNCC3)c2)cc1-c1nc2cc(N3CCOCC3)ccc2o1
– | 0.96 µM | – | – | Nc1ncc(-c2cnn(C3CCNCC3)c2)cc1-c1nc2ccc(NC(=O)c3ccc(F)cc3)cc2o1
1.14 µM | 4.05 µM | – | – | Nc1ncc(-c2cnn(C3CCNCC3)c2)cc1-c1nc2ccc(-c3ccc4[nH]ncc4c3)cc2o1
3.22 µM | 3.06 µM | – | – | COc1ccc(-c2ccc3nc(-c4cc(-c5cnn(C6CCNCC6)c5)cnc4N)oc3c2)cc1
– | 0.66 µM | – | – | COc1ccc(N(C(=O)Nc2ccc3nc(-c4cc(-c5cnn(C6CCNCC6)c5)cnc4N)oc3c2)c2ccccc2)cc1
4.3 µM | 10.1 µM | – | – | Nc1ncc(-c2cnn(C3CCNCC3)c2)cc1-c1nc2ccc(N3CCCCC3)cc2o1
– | 3.19 µM | – | – | CCCNc1ccc2oc(-c3cc(-c4cnn(C5CCNCC5)c4)cnc3N)nc2c1
– | 9.7 µM | – | – | Nc1ncc(-c2cnn(C3CCNCC3)c2)cc1-c1nc2ccc(O)c(-c3ccccc3)c2o1
– | > 10 µM | – | – | COc1ccc(-c2c(O)ccc3nc(-c4cc(-c5cnn(C6CCNCC6)c5)cnc4N)oc23)cc1
4.2 µM | 5.7 µM | – | – | Nc1ncc(-c2cnn(C3CCNCC3)c2)cc1-c1nc2ccc(Nc3cc(C(F)(F)F)cc(C(F)(F)F)c3)cc2o1
2.2 µM | 13 µM | – | – | Cc1c(O)ccc2nc(-c3cc(-c4cnn(C5CCNCC5)c4)cnc3N)oc12
– | > 10 µM | – | – | CC(C)NC(=O)c1cc2nc(-c3cc(-c4cnn(C5CCNCC5)c4)cnc3N)oc2cc1O
– | 8.3 µM | – | – | Cc1ccc(S(=O)(=O)NC(=O)Nc2ccc3nc(-c4cc(-c5cnn(C6CCNCC6)c5)cnc4N)oc3c2)cc1
– | > 10 µM | – | – | CC(C)Nc1ccc2nc(-c3cc(-c4cnn(C5CCNCC5)c4)cnc3N)oc2c1
3.49 µM | 3.19 µM | – | – | Nc1ncc(-c2cnn(C3CCNCC3)c2)cc1-c1nc2ccc(NC(=O)c3ccccc3)cc2o1
– | 2.14 µM | – | – | Cc1cc2nc(-c3cc(-c4cnn(C5CCNCC5)c4)cnc3N)oc2cc1O
1.94 µM | 6.2 µM | – | – | Nc1ccc2nc(-c3cc(-c4cnn(C5CCNCC5)c4)cnc3N)oc2c1
4.7 µM | 11.5 µM | – | – | Nc1ncc(-c2cnn(C3CCNCC3)c2)cc1-c1nc2ccc(Nc3c(F)cccc3F)cc2o1
3.7 µM | 9.3 µM | – | – | Nc1ncc(-c2cnn(C3CCNCC3)c2)cc1-c1nc2ccc(Nc3ccc(F)cc3)cc2o1
– | 1.65 µM | – | – | Nc1ncc(-c2cnn(C3CCNCC3)c2)cc1-c1nc2cc(N3CCCC3)ccc2o1

From ChEMBL document CHEMBL3091334, “Design and synthesis of novel 3-(benzo[d]oxazol-2-yl)-5-(1-(piperidin-4-yl)-1H-pyrazol-4-yl)pyridin-2-amine derivatives as selective G-protein-coupled receptor kinase-2 and -5 inhibitors” (Bioorg Med Chem Lett, 2013)
